{
  "source": "patent US8658373B2",
  "about": "“Method of screening for an agent for treating arthritis and promoting growth of articular chondrocytes” (Kazuwa Nakao, priority 2004, dated 2014)",
  "key": {"[1]": {"test_system": "collagenase OA mouse model (right knee joint)", "test": "Combined effect of NSAID and CNP in collagenase OA model", "assay_type": "in vivo", "conditions": "7 days", "method": "An osmotic […]) containing the solutions below was transplanted subcutaneously in the back of a 9-week-old male C57BL/6 J strain mouse. • Solvent: Distilled water containing 5% dextrose (Junsei Chemical Co., Ltd., Japan), 10% mannose (Nacalai Tesque Inc., Japan) and 5 mmol/L hydrochloric acid (Wako Pure Chemical Industries, Japan). • 1 μg/mL solution (6 ng/day) of CNP-22 (Calbiochem Novabiochem). In addition, to examine the effect of the NSAID indomethacin (Sigma) when used alone and in combination with the CNP, an indomethacin suspension in 0.2% carboxymethyl cellulose (Nacalai Tesque Inc., Japan) was administered orally in a forced manner at 1 mg/kg once a day for 4 successive days from the date of pump transplantation described above. On the date of pump transplantation and the following day, 6 μL of 0.15% type II collagenase (Sigma) and 6 μL of 1.5% type II collagenase solutions, respectively, were injected into the right knee joint, the breadth of both the right and left knee joints was measured daily with a slide caliper (Mitutoyo Corp., Japan) for 7 days after injection, and the difference between the right and left knee joints was calculated. This difference represented the swelling of knee joints, and the AUC was compared between the solvent control and CNP groups by the Student's t-test (SAS ver. 6.12)."}, "[2]": {"test_system": "mouse bone marrow macrophages (BMM)", "conditions": "stimulation of mouse BMM with LPS; cited from earlier work"}, "[3]": {"test_system": "blood thromboxane B2 (TXB2) level", "conditions": "LPS administration in mice; cited from earlier work"}, "[4]": {"test_system": "collagenase OA mouse model (right knee joint)", "test": "Therapeutic effect of CNP infusion on collagenase osteoarthritic mouse model", "assay_type": "in vivo", "conditions": "for AUC of knee joint swelling (difference between right and left knee joint breadth) vs solvent control: 1.5% collagenase, 28 days; for swelling of the right knee joint vs solvent control: 6 days following 1.5% collagenase", "method": "(§1) An osmotic pump (2004 model, Durect) containing the solutions below was transplanted subcutaneously in the back of a 9-week-old male C57BL/6 J strain mouse. • Solvent: Distilled water containing 5% dextrose (Junsei Chemical Co., Ltd., Japan), 10% mannose (Nacalai Tesque Inc., Japan) and 5 mmol/L hydrochloric acid (Wako Pure Chemical Industries, Japan). • 10 μg/mL solution (60 ng/day) of CNP-22 (Calbiochem Novabiochem). • 100 μg/mL solution (600 ng/day) of CNP-22 (Calbiochem Novabiochem.).\nSix days after transplantation, 6 μL of 1.5% type II collagenase (Sigma) solution was injected into the right knee joint, the breadth of both the right and left knee joints was measured on time with a slide caliper (Mitutoyo Corp., Japan) for 28 days after injection, and the difference between the right and left knee joints was calculated. This difference represented the swelling of knee joints, and the AUC was compared between the solvent control and CNP groups by the Student's t-test (SAS ver. 6.12). […] Hematoxylin-eosin-stained and safranin O-stained samples were prepared according to the method as described in Example 5, and analyzed histopathologically."}, "[5]": {"test_system": "surgical OA mouse model (right knee joint)", "test": "Therapeutic effect of CNP infusion on surgical OA mouse model", "assay_type": "in vivo", "conditions": "4, 8 and 11 days postoperatively", "method": "as §1, with “mouse (CLEA Japan, Japan).” for “mouse.”, “[…]” for “μg/mL”, “Novabiochem).” for “Novabiochem.).”\nOn the following day of transplantation, the mouse was anesthetized with ether and subjected to the surgical procedures of anterocrucial ligament excision, medial collateral ligament excision and medial meniscus total resection in the right knee joint to induce osteoarthritis. The breadth of both the right and left knee joints was measured on time with a slide caliper (Mitutoyo Corp.) for 11 days after administration, and the difference between the right and left knee joints was calculated. This difference represented the swelling of knee joints, and the AUC was compared between the solvent control and CNP groups by the Student's t-test (SAS Preclinical Package, SAS Institute Japan, Japan)."}, "[6]": {"test_system": "adjuvant arthritis rat model", "test": "Effect of CNPs on adjuvant arthritis rat model", "assay_type": "in vivo", "conditions": "CNP-22 60 ng/day; for arthritis score of the limb ends vs solvent control: osmotic pump subcutaneous; for body weight vs solvent control: days 7 and 10 from antigen sensitization"}, "[7]": {"test_system": "collagen arthritis rat model", "test": "Effect of CNPs on collagen arthritis rat model", "assay_type": "in vivo", "conditions": "CNP-22 6 μg/day, days 21, 24 and 28 from antigen sensitization", "method": "An osmotic pump (2004 model, Durect) containing the solutions below was transplanted subcutaneously in the back of a 10-week-old female DA/Slc strain rat (Japan SLC, Inc., Japan). • Solvent: Distilled water containing 5% dextrose (Junsei Chemical Co., Ltd., Japan), 10% mannose (Nacalai Tesque Inc., Japan) and 5 mmol/L hydrochloric acid (Wako Pure Chemical Industries, Japan). • 1 mg/mL solution (6 μg/day) of CNP-22 (Calbiochem Novabiochem).\nImmediately after transplantation, bovine type II collagen (Collagen Technology Training Co., Japan) was dissolved in 0.1 mol/L aqueous acetic acid so as to make 1.5 mg/mL and suspended in an equal volume of Freund Incomplete Adjuvant (DIFCO LABORATORIES), and 400 μL of the suspension was inoculated into the skin on the back of a rat. Changes in body weight were also measured on a daily basis. In addition, changes in body weight were also measured in a normal group receiving neither pump transplantation nor inoculation."}, "[8]": {"conditions": "CNP-22 60 ng/day continuous subcutaneous"}, "[9]": {"conditions": "CNP-22 600 ng/day continuous subcutaneous"}},
  "note": "Entries after “also recorded” stand apart in the source; their conditions may differ. Bridges are numbered along the chain shown (N, C = ends). Where no end group is shown, it is not given here.",
  "data": [
    {"compound": "COc1ccc2c(c1)c(CC(=O)O)c(C)n2C(=O)c1ccc(Cl)cc1", "note": "[indomethacin]", "values": [
      {"measurement": "swelling of knee joints (AUC) vs solvent control", "setting": "[1]; indomethacin 1 mg/kg oral once a day for 4 days, alone", "result": "not inhibitory; also recorded: did not"}
    ]},
    {"compound": "ANP: atrial sodium peptide, a natriuretic peptide acting via NPR-A (SLRRSSCFGGRMDRIGAQSGLGCNSFRY; ends and bridges not checked; cysteine pairing not given here; UniProt P01160 124-151, looked up) [reference compound]", "values": [
      {"measurement": "inhibitory effect on the enhancement of PGE2 production", "setting": "[2]", "result": "up to 70%"},
      {"measurement": "effect on LPS-increased blood TXB2 level", "setting": "[3]", "result": "inhibitory effect"}
    ]},
    {"compound": "Gly Leu Ser Lys Gly Cys Phe Gly Leu Lys Leu Asp Arg Ile Gly Ser Met Ser Gly Leu Gly Cys (GLSKGCFGLKLDRIGSMSGLGC; disulfide 6-22; listed as Homo sapiens) [CNP-22, CNP-22 (Calbiochem Novabiochem) used in the tests]", "values": [
      {"measurement": "synovial cell growth, granulation and inflammatory cell infiltration in the synovial membrane (histopathology)", "setting": "[4]; CNP group vs solvent control, collagenase-induced", "result": "remarkably reduced"},
      {"measurement": "degeneration of the articular cartilage", "setting": "[4]; CNP group, osmotic pump infusion", "result": "significantly reduced"},
      {"measurement": "AUC of knee joint swelling (difference between right and left knee joint breadth) vs solvent control", "setting": "[4]; CNP-22 60 ng/day continuous subcutaneous (osmotic pump)", "result": "significantly lower"},
      {"measurement": "swelling of the right knee joint vs solvent control", "setting": "[4]; [8]", "result": "significantly inhibited"},
      {"measurement": "AUC of knee joint swelling (difference between right and left knee joint breadth) vs solvent control", "setting": "[4]; CNP-22 600 ng/day continuous subcutaneous (osmotic pump)", "result": "significantly lower"},
      {"measurement": "swelling of the right knee joint vs solvent control", "setting": "[4]; [9]", "result": "significantly inhibited"},
      {"measurement": "AUC of knee joint swelling vs solvent control", "setting": "[5]; [8]", "result": "significantly lower; also recorded: significantly inhibited"},
      {"measurement": "AUC of knee joint swelling vs solvent control", "setting": "[5]; [9]", "result": "significantly lower; also recorded: significantly inhibited"},
      {"measurement": "swelling of knee joints (AUC) vs solvent control", "setting": "[1]; CNP-22 6 ng/day continuous subcutaneous alone", "result": "significantly inhibited"},
      {"measurement": "arthritis score of the limb ends vs solvent control", "setting": "[6]", "result": "lower"},
      {"measurement": "arthritis score of the limb ends vs solvent control", "setting": "[6]; listed as CNP", "result": "somewhat lower"},
      {"measurement": "body weight vs solvent control", "setting": "[6]", "result": "significantly heavy"},
      {"measurement": "body weight vs solvent control", "setting": "[6]; listed as CNP", "result": "increased significantly"},
      {"measurement": "body weight (body weight loss) vs solvent control", "setting": "[7]", "result": "significantly heavy"},
      {"measurement": "body weight (body weight loss) vs solvent control", "setting": "[7]; listed as CNP", "result": "significantly smaller"},
      {"measurement": "inhibitory effect on the enhancement of PGE2 production", "setting": "[2]", "result": "up to 20%"}
    ]}
  ]
}
